Activity calls are given as the source filed them. The rule behind the calls is not given here.
Tested on: CCRIS mutagenicity, Ames/micronucleus/aberration tests
Assay: CCRIS mutagenicity studies
[1] = Test System: AMES SALMONELLA TYPHIMURIUM, Strain/Indicator: TA97, Metabolic Activation: NONE, Method: PREINCUBATION
[2] = Test System: AMES SALMONELLA TYPHIMURIUM, Strain/Indicator: TA98, Metabolic Activation: NONE, Method: PREINCUBATION
[3] = Test System: AMES SALMONELLA TYPHIMURIUM, Strain/Indicator: TA98, Metabolic Activation: NONE, Method: STANDARD PLATE
[4] = Test System: AMES SALMONELLA TYPHIMURIUM, Strain/Indicator: TA98, Metabolic Activation: RAT, LIVER, S-9, AROCLOR 1254, Method: STANDARD PLATE
[5] = Test System: AMES SALMONELLA TYPHIMURIUM, Strain/Indicator: TA98, Metabolic Activation: RAT, LIVER, S-9, PCB, Method: PREINCUBATION
[6] = Test System: AMES SALMONELLA TYPHIMURIUM, Strain/Indicator: TA100, Metabolic Activation: NONE, Method: PREINCUBATION
[7] = Test System: AMES SALMONELLA TYPHIMURIUM, Strain/Indicator: TA100, Metabolic Activation: NONE, Method: STANDARD PLATE
[8] = Test System: AMES SALMONELLA TYPHIMURIUM, Strain/Indicator: TA100, Metabolic Activation: RAT, LIVER, S-9, AROCLOR 1254, Method: STANDARD PLATE
[9] = Test System: AMES SALMONELLA TYPHIMURIUM, Strain/Indicator: TA100, Metabolic Activation: RAT, LIVER, S-9, PCB, Method: PREINCUBATION
[10] = Test System: AMES SALMONELLA TYPHIMURIUM, Strain/Indicator: TA1535, Metabolic Activation: NONE, Method: PREINCUBATION

`Nc1ccc(Cc2ccc(N)cc2)cc1` was tested, and the mutagenic call (End Point: IN VIVO MICRONUCLEUS, Test System: PERIPHERAL BLOOD RETICULOCYTES, Species: RAT, Strain/Sex: FISHER 344 OR SD/MALE, Route: ORAL OR IP) was “inactive; negative”, the mutagenic call (Test System: AMES SALMONELLA TYPHIMURIUM, Strain/Indicator: TA97, Metabolic Activation: HAMSTER, LIVER, S-9, AROCLOR 1254 (10%), Method: PREINCUBATION) was “active; positive” and the mutagenic call [1] was “inactive; negative”. For the same molecule, the mutagenic call (Test System: AMES SALMONELLA TYPHIMURIUM, Strain/Indicator: TA98, Metabolic Activation: HAMSTER, LIVER, S-9, AROCLOR 1254 (10%), Method: PREINCUBATION) was “active; positive”, the mutagenic call [2] was “inactive; negative” and the mutagenic call [3] was “inactive; negative”. For the same molecule, the mutagenic call [4] was “active; positive”, the mutagenic call [5] was “active; positive” and the mutagenic call (Test System: AMES SALMONELLA TYPHIMURIUM, Strain/Indicator: TA98, Metabolic Activation: RAT, LIVER, S-9, PCB, Method: STANDARD PLATE) was “active; positive”. The mutagenic call (Test System: AMES SALMONELLA TYPHIMURIUM, Strain/Indicator: TA98, Metabolic Activation: RAT, LIVER, S-9, PHENOBARBITAL, Method: PREINCUBATION) was “inactive; negative”, the mutagenic call (Test System: AMES SALMONELLA TYPHIMURIUM, Strain/Indicator: TA100, Metabolic Activation: HAMSTER, LIVER, S-9, AROCLOR 1254 (10%), Method: PREINCUBATION) was “active; positive” and the mutagenic call [6] was “inactive; negative”. For the same molecule, the mutagenic call [7] was “inactive; negative”, the mutagenic call (Test System: AMES SALMONELLA TYPHIMURIUM, Strain/Indicator: TA100, Metabolic Activation: RAT, LIVER, S-9, AROCLOR 1254 (10%), Method: PREINCUBATION) was “active; positive” and the mutagenic call [8] was “active; positive”. For the same molecule, the mutagenic call [9] was “active; positive”, the mutagenic call (Test System: AMES SALMONELLA TYPHIMURIUM, Strain/Indicator: TA100, Metabolic Activation: RAT, LIVER, S-9, PCB, Method: STANDARD PLATE) was “active; positive” and the mutagenic call (Test System: AMES SALMONELLA TYPHIMURIUM, Strain/Indicator: TA100, Metabolic Activation: RAT, LIVER, S-9, PHENOBARBITAL, Method: PREINCUBATION) was “active; positive”. The mutagenic call (Test System: AMES SALMONELLA TYPHIMURIUM, Strain/Indicator: TA1535, Metabolic Activation: HAMSTER, LIVER, S-9, AROCLOR 1254 (5 OR 30%), Method: PREINCUBATION) was “active; positive”, the mutagenic call (Test System: AMES SALMONELLA TYPHIMURIUM, Strain/Indicator: TA1535, Metabolic Activation: HAMSTER, LIVER, S-9, AROCLOR 1254 (10%), Method: PREINCUBATION) was “active; positive” and the mutagenic call [10] was “inactive; negative”. For the same molecule, the mutagenic call (Test System: AMES SALMONELLA TYPHIMURIUM, Strain/Indicator: TA1535, Metabolic Activation: RAT, LIVER, S-9, AROCLOR 1254 (10%), Method: PREINCUBATION) was “inactive; negative”, the mutagenic call (Test System: E. COLI, Strain/Indicator: WP2 UVRA, Metabolic Activation: HAMSTER, LIVER, S-9, AROCLOR 1254, Method: STANDARD PLATE) was “inactive; negative” and the mutagenic call (Test System: E. COLI, Strain/Indicator: WP2 UVRA, Metabolic Activation: HAMSTER, LIVER, S-9, Method: STANDARD PLATE) was “inactive; negative”. For the same molecule, the mutagenic call (Test System: E. COLI, Strain/Indicator: WP2 UVRA, Metabolic Activation: MOUSE, LIVER, S-9, AROCLOR 1254, Method: STANDARD PLATE) was “inactive; negative”, the mutagenic call (Test System: E. COLI, Strain/Indicator: WP2 UVRA, Metabolic Activation: MOUSE, LIVER, S-9, Method: STANDARD PLATE) was “inactive; negative” and the mutagenic call (Test System: E. COLI, Strain/Indicator: WP2 UVRA, Metabolic Activation: NONE, Method: STANDARD PLATE) was “inactive; negative”. For the same molecule, the mutagenic call (Test System: E. COLI, Strain/Indicator: WP2 UVRA, Metabolic Activation: RAT, LIVER, S-9, AROCLOR 1254, Method: STANDARD PLATE) was “inactive; negative”, the mutagenic call (Test System: E. COLI, Strain/Indicator: WP2 UVRA, Metabolic Activation: RAT, LIVER, S-9, Method: STANDARD PLATE) was “inactive; negative” and the mutagenic call (Test System: UDS RAT HEPATOCYTES, Strain/Indicator: BROMODEOXYURIDINE INCORP, Metabolic Activation: NONE, Method: FLOW CYTOMETRIC ANALYSIS) was “inactive; negative”. For the same molecule, the mutagenic call (Test System: UDS RAT HEPATOCYTES, Strain/Indicator: THY INCORP, Metabolic Activation: NONE, Method: AUTORADIOGRAPHY) was “inactive; negative”.

With `CCCCCc1cc(O)c2c(c1)OC(C)(C)[C@@H]1CCC(C)=C[C@@H]21` the mutagenic call (Test System: AMES SALMONELLA TYPHIMURIUM, Strain/Indicator: TA97, Metabolic Activation: HAMSTER, LIVER, S-9, AROCLOR 1254 (10 OR 30%), Method: PREINCUBATION) was “inactive; negative”, the mutagenic call [1] was “inactive; negative” and the mutagenic call (Test System: AMES SALMONELLA TYPHIMURIUM, Strain/Indicator: TA97, Metabolic Activation: RAT, LIVER, S-9, AROCLOR 1254 (10 OR 30%), Method: PREINCUBATION) was “inactive; negative”. For the same molecule, the mutagenic call (Test System: AMES SALMONELLA TYPHIMURIUM, Strain/Indicator: TA98, Metabolic Activation: HAMSTER, LIVER, S-9, AROCLOR 1254 (10 OR 30%), Method: PREINCUBATION) was “inactive; negative”, the mutagenic call [2] was “inactive; negative” and the mutagenic call (Test System: AMES SALMONELLA TYPHIMURIUM, Strain/Indicator: TA98, Metabolic Activation: RAT, LIVER, S-9, AROCLOR 1254 (10 OR 30%), Method: PREINCUBATION) was “inactive; negative”. The mutagenic call (Test System: AMES SALMONELLA TYPHIMURIUM, Strain/Indicator: TA100, Metabolic Activation: HAMSTER, LIVER, S-9, AROCLOR 1254 (10 OR 30%), Method: PREINCUBATION) was “inactive; negative”, the mutagenic call [6] was “inactive; negative” and the mutagenic call (Test System: AMES SALMONELLA TYPHIMURIUM, Strain/Indicator: TA100, Metabolic Activation: RAT, LIVER, S-9, AROCLOR 1254 (10 OR 30%), Method: PREINCUBATION) was “inactive; negative”. The mutagenic call (Test System: AMES SALMONELLA TYPHIMURIUM, Strain/Indicator: TA1535, Metabolic Activation: HAMSTER, LIVER, S-9, AROCLOR 1254 (10 OR 30%), Method: PREINCUBATION) was “inactive; negative”, the mutagenic call [10] was “inactive; negative” and the mutagenic call (Test System: AMES SALMONELLA TYPHIMURIUM, Strain/Indicator: TA1535, Metabolic Activation: RAT, LIVER, S-9, AROCLOR 1254 (10 OR 30%), Method: PREINCUBATION) was “inactive; negative”.

`NC(Cc1ccc(O)cc1)C(=O)O` (stereo unspecified) was tested, and the mutagenic call [3] was “inactive; negative”, the mutagenic call [4] was “inactive; negative” and the mutagenic call [7] was “inactive; negative”. For the same molecule, the mutagenic call [8] was “inactive; negative”.

With `O=C1c2ccc([N+](=O)[O-])cc2C(=O)N1CCl` the mutagenic call [2] was “active; positive”, the mutagenic call [5] was “active; positive” and the mutagenic call [6] was “active; positive”. For the same molecule, the mutagenic call [9] was “active; positive”.

From PubChem BioAssay AID1259407 (Chemical Carcinogenesis Research Information System (CCRIS), 2018)
